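How tested: cells in 96-well plates exposed to compound for 48 hours at five concentrations. Definition used: TGI = concentration required for complete inhibition of growth.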 A value given as a limit tells only on which side of the number the result lay.

One experiment deals with HOP-62 NSCLC. Kind of experiment: NCI anticancer screen, dose series, 48 h.
`O=C1C/C(=C/c2ccc(/C=C3/CC(=O)N(c4cccc(Br)c4)C3=O)cc2)C(=O)N1c1cccc(Br)c1` returned a TGI above 100 µM.

In turn, `CCCCCCn1c(SCC)c2ccccc2c1-c1nc(F)nc(F)n1` registered a TGI above 100 µM.

Consider `CN(C(=O)C12C3C4C1C1C2C3C41I)C(C)(C)C` (stereo not given), for which the TGI is above 100 µM.

Regarding `CC(=O)/C(=C\c1ccco1)C(=O)Nc1ccccc1`, the TGI is above 100 µM.

Consider `NCC1(N2CCOCC2)C2CCCC21CO` (stereo not given), for which the TGI is above 100 µM.

In turn, `CC#COP(=O)(OCC)OCC` registered a TGI above 100 µM.

Compound `COc1ccc(/C=C(\Cl)c2ccc(OC)c(OC)c2)cc1OC` came in with a TGI above 100 µM.

The compound `Cc1c2ccncc2cc2c1sc1ccncc12` registered a TGI of 8.37 µM.

`C=CCONC(=O)c1ccc(Cl)cc1` came in with a TGI above 100 µM.

For `O=C(CCn1[nH]c(=O)c(Cl)c(Cl)c1=O)NOCCCc1ccccc1`, the TGI is above 100 µM.

For `CC(C)=CCCC1(C)C=Cc2c(c(C)cc3c2[nH]c2cc(O)ccc23)O1` (stereo not given), the TGI is above 25 µM.

In the case of `C/C(=N\N)C(CN(C)C)C(c1ccccc1)c1c(O)c2ccccc2oc1=O` (stereo not given), the TGI is above 100 µM.

`c1ccc(Nc2nnc(CSc3nc(-c4ccccc4)c(-c4ccccc4)[nH]3)s2)cc1`: the TGI was 41 µM.

The test system of the next experiment is SK-MEL-28 melanoma. The experiment in a line: NCI anticancer screen, dose series, 48 h.
`O=C1C/C(=C/c2ccc(/C=C3/CC(=O)N(c4cccc(Br)c4)C3=O)cc2)C(=O)N1c1cccc(Br)c1` had a TGI above 100 µM.

On to `CCCCCCn1c(SCC)c2ccccc2c1-c1nc(F)nc(F)n1`, for which the TGI is above 100 µM.

Regarding `CN(C(=O)C12C3C4C1C1C2C3C41I)C(C)(C)C` (stereo not given), the TGI was above 100 µM.

In the case of `CC(=O)/C(=C\c1ccco1)C(=O)Nc1ccccc1`, the TGI was above 100 µM.

In the case of `NCC1(N2CCOCC2)C2CCCC21CO` (stereo not given), the TGI was above 100 µM.

`COc1ccc(/C=C(\Cl)c2ccc(OC)c(OC)c2)cc1OC` registered a TGI above 100 µM.

Regarding `Cc1c2ccncc2cc2c1sc1ccncc12`, the TGI amounted to 14.1 µM.

As for `C=CCONC(=O)c1ccc(Cl)cc1`, the TGI is above 100 µM.

Compound `O=C(CC1Sc2ccccc2NC1=O)Nc1cc(Cl)ccc1Cl` (stereo not given) displayed a TGI above 100 µM.

As to `O=C(CCn1[nH]c(=O)c(Cl)c(Cl)c1=O)NOCCCc1ccccc1`, the TGI is above 100 µM.

Compound `CC(C)=CCCC1(C)C=Cc2c(c(C)cc3c2[nH]c2cc(O)ccc23)O1` (stereo not given) had a TGI above 25 µM.

In the case of `C/C(=N\N)C(CN(C)C)C(c1ccccc1)c1c(O)c2ccccc2oc1=O` (stereo not given), the TGI is above 100 µM.

For the compound `c1ccc(Nc2nnc(CSc3nc(-c4ccccc4)c(-c4ccccc4)[nH]3)s2)cc1`, the TGI stood at 44.6 µM.

The next experiment deals with SK-MEL-2 melanoma. The experiment in a line: NCI anticancer screen, dose series, 48 h.
Take `O=C1C/C(=C/c2ccc(/C=C3/CC(=O)N(c4cccc(Br)c4)C3=O)cc2)C(=O)N1c1cccc(Br)c1`: the TGI was above 100 µM.

On to `CCCCCCn1c(SCC)c2ccccc2c1-c1nc(F)nc(F)n1`, for which the TGI is above 100 µM.

As for `CN(C(=O)C12C3C4C1C1C2C3C41I)C(C)(C)C` (stereo not given), the TGI is above 100 µM.

Regarding `CC(=O)/C(=C\c1ccco1)C(=O)Nc1ccccc1`, the TGI was above 100 µM.

`NCC1(N2CCOCC2)C2CCCC21CO` (stereo not given) registered a TGI above 100 µM.

The compound `CC#COP(=O)(OCC)OCC` showed a TGI above 100 µM.

For `COc1ccc(/C=C(\Cl)c2ccc(OC)c(OC)c2)cc1OC`, the TGI is above 100 µM.

`Cc1c2ccncc2cc2c1sc1ccncc12`: the TGI turned out to be 17.8 µM.

With `C=CCONC(=O)c1ccc(Cl)cc1`, the TGI is above 100 µM.

For the compound `O=C(CC1Sc2ccccc2NC1=O)Nc1cc(Cl)ccc1Cl` (stereo not given), the TGI is above 100 µM.

The compound `O=C(CCn1[nH]c(=O)c(Cl)c(Cl)c1=O)NOCCCc1ccccc1` gave a TGI above 100 µM.

The compound `CC(C)=CCCC1(C)C=Cc2c(c(C)cc3c2[nH]c2cc(O)ccc23)O1` (stereo not given) yielded a TGI above 25 µM.

In the case of `C/C(=N\N)C(CN(C)C)C(c1ccccc1)c1c(O)c2ccccc2oc1=O` (stereo not given), the TGI was above 100 µM.

Regarding `c1ccc(Nc2nnc(CSc3nc(-c4ccccc4)c(-c4ccccc4)[nH]3)s2)cc1`, the TGI was 38.4 µM.

The subject of a further experiment is KM12 colon. Kind of experiment: NCI anticancer screen, dose series, 48 h.
`O=C1C/C(=C/c2ccc(/C=C3/CC(=O)N(c4cccc(Br)c4)C3=O)cc2)C(=O)N1c1cccc(Br)c1` registered a TGI above 100 µM.

Compound `CCCCCCn1c(SCC)c2ccccc2c1-c1nc(F)nc(F)n1` showed a TGI above 100 µM.

With `CN(C(=O)C12C3C4C1C1C2C3C41I)C(C)(C)C` (stereo not given), the TGI is above 100 µM.

For the compound `CC(=O)/C(=C\c1ccco1)C(=O)Nc1ccccc1`, the TGI was above 100 µM.

For the compound `NCC1(N2CCOCC2)C2CCCC21CO` (stereo not given), the TGI was above 100 µM.

The compound `CC#COP(=O)(OCC)OCC` gave a TGI above 100 µM.

The compound `COc1ccc(/C=C(\Cl)c2ccc(OC)c(OC)c2)cc1OC` showed a TGI above 100 µM.

For the compound `Cc1c2ccncc2cc2c1sc1ccncc12`, the TGI came to 17.1 µM.

In the case of `C=CCONC(=O)c1ccc(Cl)cc1`, the TGI is above 100 µM.

As to `O=C(CCn1[nH]c(=O)c(Cl)c(Cl)c1=O)NOCCCc1ccccc1`, the TGI is above 100 µM.

As for `CC(C)=CCCC1(C)C=Cc2c(c(C)cc3c2[nH]c2cc(O)ccc23)O1` (stereo not given), the TGI is above 25 µM.

Turning to `C/C(=N\N)C(CN(C)C)C(c1ccccc1)c1c(O)c2ccccc2oc1=O` (stereo not given), the TGI is above 100 µM.

With `c1ccc(Nc2nnc(CSc3nc(-c4ccccc4)c(-c4ccccc4)[nH]3)s2)cc1`, the TGI was determined as 44.1 µM.

In another experiment the test system is SNB-19 CNS. Kind of experiment: NCI anticancer screen, dose series, 48 h.
Turning to `O=C1C/C(=C/c2ccc(/C=C3/CC(=O)N(c4cccc(Br)c4)C3=O)cc2)C(=O)N1c1cccc(Br)c1`, the TGI is above 100 µM.

For `CCCCCCn1c(SCC)c2ccccc2c1-c1nc(F)nc(F)n1`, the TGI is above 100 µM.

The compound `CN(C(=O)C12C3C4C1C1C2C3C41I)C(C)(C)C` (stereo not given) showed a TGI above 100 µM.

In the case of `CC(=O)/C(=C\c1ccco1)C(=O)Nc1ccccc1`, the TGI is above 100 µM.

In turn, `NCC1(N2CCOCC2)C2CCCC21CO` (stereo not given) came in with a TGI above 100 µM.

For the compound `CC#COP(=O)(OCC)OCC`, the TGI is above 100 µM.

The compound `COc1ccc(/C=C(\Cl)c2ccc(OC)c(OC)c2)cc1OC` returned a TGI above 100 µM.

Source of the values: PubChem BioAssay (NCI).
